One assay deals with T1, P70S6K (T412E mutant) (Homo sapiens, UniProt P23443, T412E).
T1 construct: purchased Millipore
Nature of the assay: P70S6K enzyme assay. Format: biochemical. To be noted: 24 μM ATP, 90 min at 25° C., mobility shift (Caliper). The protocol:
P70S6K inhibitor compounds were diluted and plated in 96 well plates. A reaction mixture including the following components was then added to the compound plate to initiate the enzyme reaction; P70S6K (3 nM, T412E mutant, Millipore) was mixed with 24 μM ATP in an assay buffer containing 100 mM Hepes (pH 7.5), 5 mM MgCl2, 1 mM DTT, 0.015% Brij and 1 μM of the substrate peptide FITC-AHA-AKRRRLSSLRA-OH (derived from the S6 ribosomal protein sequence, FITC=fluorescein isothiocyanate, AHA=6-aminohexanoic acid). The reaction was incubated for 90 min at 25° C., before the addition of 10 mM EDTA to stop the reaction. The proportion of substrate and product (phosphorylated) peptide was analysed on a Caliper Life Sciences Lab Chip 3000, using a pressure of −1.4 psi, and upstream and downstream voltages of −3000 and −700 respectively. Product peaks were resolved before substrate peaks on the resulting chromatograms.

In another assay the target is T2, His-AKT (Full Length) (Homo sapiens, UniProt P31749).
T2 construct: His-AKT (Full Length); His; purchased Invitrogen P2999
Nature of the assay: AKT enzyme assay. Type of assay: biochemical. The note with it: 160 uM ATP, 90 min at 25 C, off-chip mobility shift (Caliper). As for the experimental part: A TTP Mosquito liquid handling instrument was used to place 125 nl of the appropriate concentration of inhibitor in 100% DMSO (for a dose response curve calculation) into each well of a 384-well plate. To this reaction components were added to a final volume of 12.5 μl: • 0.1 ng/μ1 His-AKT (Full Length), (Invitrogen, Part # P2999, Lot #641228C). • 160 uM ATP (Fluka, 02055) • 1 mM DTT (Sigma, D0632) • 1 mM MgCl2 (Sigma, M1028) • 1 μM substrate peptide (sequence FITC-AHA-GRPRTSSFAEG-NH2), synthesized by Tufts Peptide Synthesis service. • 100 mM HEPES pH 7.5 (Calbiochem, 391338) • 0.015% Brij-35 (Sigma, B4184)
The reaction was incubated for 90 min at 25 C, and then stopped by the addition of 70 μl of Stop buffer (100 mM HEPES pH 7.5, 0.015% Brij-35, 10 mM EDTA (Sigma, E7889)).
The plate was read on a Caliper LC 3000 in an Off-Chip mobility shift assay format, using the following parameters for a 12-sipper chip: screening pressure—2.3 psi, upstream voltage—500, and downstream voltage—3000. These conditions cause unphosphorylated substrate and phosphorylated product peptide to resolve as separate peaks allowing direct measurement of percentage of conversion of substrate to product. The percent conversion was plotted against concentration of inhibitor to produce a sigmoidal dose response curve, from which an IC50 was calculated.

T1 sequence (P23443 whole entry T412E): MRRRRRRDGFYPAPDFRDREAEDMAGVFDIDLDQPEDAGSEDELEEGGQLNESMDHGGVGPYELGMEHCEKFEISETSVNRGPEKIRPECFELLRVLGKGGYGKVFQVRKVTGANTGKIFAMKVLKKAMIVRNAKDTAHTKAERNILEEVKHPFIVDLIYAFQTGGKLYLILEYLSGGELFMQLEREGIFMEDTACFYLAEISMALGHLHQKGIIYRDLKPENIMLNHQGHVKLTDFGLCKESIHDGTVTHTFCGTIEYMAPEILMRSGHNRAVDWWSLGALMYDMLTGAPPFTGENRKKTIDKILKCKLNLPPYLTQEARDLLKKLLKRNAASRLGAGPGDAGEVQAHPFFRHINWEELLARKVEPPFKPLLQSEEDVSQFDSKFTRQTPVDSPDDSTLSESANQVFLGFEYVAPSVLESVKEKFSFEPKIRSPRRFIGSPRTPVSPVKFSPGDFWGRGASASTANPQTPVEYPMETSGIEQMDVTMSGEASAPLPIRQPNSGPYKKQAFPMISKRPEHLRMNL
T2 sequence (P31749 whole entry): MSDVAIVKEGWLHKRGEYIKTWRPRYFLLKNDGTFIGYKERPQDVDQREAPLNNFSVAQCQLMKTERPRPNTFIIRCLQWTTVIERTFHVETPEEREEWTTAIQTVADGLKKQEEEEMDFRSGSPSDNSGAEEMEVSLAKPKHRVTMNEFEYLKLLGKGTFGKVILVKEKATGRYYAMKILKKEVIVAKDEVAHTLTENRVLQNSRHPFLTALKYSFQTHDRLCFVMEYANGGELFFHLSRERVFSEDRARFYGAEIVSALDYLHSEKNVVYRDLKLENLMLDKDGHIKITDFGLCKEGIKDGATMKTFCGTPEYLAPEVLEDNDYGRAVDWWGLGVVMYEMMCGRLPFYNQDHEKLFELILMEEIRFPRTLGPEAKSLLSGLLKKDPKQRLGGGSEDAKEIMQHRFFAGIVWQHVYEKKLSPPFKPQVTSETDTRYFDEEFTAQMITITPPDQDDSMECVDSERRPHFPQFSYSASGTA

Usually IC50 stands for the midpoint of a concentration-inhibition curve. Regarding `CC(C)c1cc(-c2cn(CCN3CCC3)c(C3CCN(c4ncnc(N)c4C(C)C)CC3)n2)ccn1` [Compound 3, 6-{4-[1-(2-Azetidin-1-yl-ethyl)-4-(2-isopropyl-pyridin-4-yl)-1H-imidazol-2-yl]-piperidin-1-yl}-5-isopropyl-pyrimidin-4-ylamine], the IC50 at P70S6K (T412E mutant) and at His-AKT (Full Length) was 3 to 15 nM throughout.
In the case of `Cc1cc(-c2cn(CCN3CCC3)c(C3CCN(c4ncnc(N)c4-c4ccncc4)CC3)n2)ccc1F` [Compound 8, 6-{4-[1-(2-Azetidin-1-yl-ethyl)-4-(4-fluoro-3-methyl-phenyl)-1H-imidazol-2-yl]-piperidin-1-yl}-5-pyridin-4-yl-pyrimidin-4-ylamine], the IC50 on P70S6K (T412E mutant) and at His-AKT (Full Length) was 3 to 15 nM in each case.
For the molecule `Cc1cc(-c2cn(CCN(C)C)c(C3CCN(c4ncnc(N)c4Cl)CC3)n2)ccc1F` [Compound 22], the IC50 at P70S6K (T412E mutant) and on His-AKT (Full Length) was under 3 nM in each case.
Consider `CC(C)c1cc(-c2cn(CCN3CCC3)c(C3CCN(c4ncnc(N)c4-c4ccncc4)CC3)n2)ccn1` [Compound 13, 6-{4-[1-(2-Azetidin-1-yl-ethyl)-4-(2-isopropyl-pyridin-4-yl)-1H-imidazol-2-yl}-piperidin-1-yl]-5-Pyridin-4-yl-pyrimidin-4-ylamine], for which the 50% inhibitory concentration (IC50) on P70S6K (T412E mutant) is 3 to 15 nM; on His-AKT (Full Length), over 15 nM.
The like results for `CC(C)c1cc(-c2cn(CCN3CCC3)c(C3CCN(c4ncnc(N)c4-c4cccnc4)CC3)n2)ccn1` [Compound 19, 6-{4-[1-(2-Azetidin-1-yl-ethyl)-4-(2-isopropyl-pyridin-4-yl)-1H-imidazol-2-yl]-piperidin-1-yl}-5-Pyridin-3-yl-pyrimidin-4-ylamine] were, in that order, 3 to 15 nM and over 15 nM.
The like results for `CCOc1c(N)ncnc1N1CCC(c2nc(-c3ccnc(C(C)C)c3)cn2CCN2CCC2)CC1` [Compound 10, 6-{4-[1-(2-Azetidin-1-yl-ethyl)-4-(2-isopropyl-pyridin-4-yl)-1H-imidazol-2-yl]-piperidin-1-yl}-5-ethoxy-pyrimidin-4-ylamine] were, in that order, 3 to 15 nM and 3 to 15 nM.
The like results for `CCc1c(N)ncnc1N1CCC(c2nc(-c3ccc(F)c(C)c3)cn2CCN2CCC2)CC1` [Compound 1, 6-{4-[1-(2-Azetidin-1-yl-ethyl)-4-(4-fluoro-3-methyl-phenyl)-1H-imidazol-2-yl]-piperidin-1-yl}-5-ethyl-pyrimidin-4-ylamine] were, in that order, under 3 nM and 3 to 15 nM.
Take `CC(C)c1cc(-c2cn(CCN3CCC3)c(C3CCN(c4ncnc(N)c4C=O)CC3)n2)ccn1` [Compound 15, 4-Amino-6-{4-[1-(2-azetidin-1-yl-ethyl)-4-(2-isopropyl-pyridin-4-yl)-1H-imidazol-2-yl]-piperidin-1-yl}-pyrimidine-5-carbaldehyde]: the IC50 on P70S6K (T412E mutant) is under 3 nM; on His-AKT (Full Length) it was 3 to 15 nM.
On the same counts, the results for `Cc1cc(-c2cn(CCN3CCC3)c(C3CCN(c4ncnc(N)c4-c4ccn[nH]4)CC3)n2)ccc1F` [Compound 7, 6-{4-[1-(2-Azetidin-1-yl-ethyl)-4-(4-fluoro-3-methyl-phenyl)-1H-imidazol-2-yl]-piperidin-1-yl}-5-(2H-pyrazol-3-yl)-pyrimidin-4-ylamine] are 3 to 15 nM and 3 to 15 nM.
In the case of `Cc1cc(-c2cn(CCN3CCC3)c(C3CCN(c4ncnc(N)c4C4CC4)CC3)n2)ccc1F` [Compound 16, 6-{4-[1-(2-Azetidin-1-yl-ethyl)-4-(4-fluoro-3-methyl-phenyl)-1H-imidazol-2-yl]-piperidin-1-yl}-5-cyclopropyl-pyrimidin-4-ylamine], the IC50 at P70S6K (T412E mutant) and on His-AKT (Full Length) was under 3 nM throughout.
With `CC(C)c1cc(-c2cn(CCN3CCC3)c(C3CCN(c4ncnc(N)c4-c4ccccc4)CC3)n2)ccn1` [Compound 18, 6-{4-[1-(2-Azetidin-1-yl-ethyl)-4-(2-isopropyl-pyridin-4-yl)-1H-imidazol-2-yl]-piperidin-1-yl}-5-phenyl-pyrimidin-4-ylamine], the half-maximal inhibitory concentration (IC50) is under 3 nM on P70S6K (T412E mutant) and over 15 nM on His-AKT (Full Length).
On the same counts, the results for `CC(C)Oc1c(N)ncnc1N1CCC(c2nc(-c3ccnc(C(F)(F)F)c3)cn2CCN(C)C)CC1` [Compound 28] are 3 to 15 nM and 3 to 15 nM.
The like results for `CCc1c(N)ncnc1N1CCC(c2nc(-c3ccnc(C(F)(F)F)c3)cn2CCN(C)C)CC1` [Compound 27] were, in that order, 3 to 15 nM and over 15 nM.
Consider `Cc1cc(-c2cn(CCN(C)C)c(C3CCN(c4ncnc(N)c4Br)CC3)n2)ccc1F` [Compound 21], for which the IC50 at P70S6K (T412E mutant) and at His-AKT (Full Length) was under 3 nM in each case.
As to `CN(C)CCn1cc(-c2ccnc(C(F)(F)F)c2)nc1C1CCN(c2ncnc(N)c2Br)CC1` [Compound 25], the IC50 at P70S6K (T412E mutant) and at His-AKT (Full Length) was under 3 nM each time.
`CC(C)c1cc(-c2cn(CCN3CCC3)c(C3CCN(c4ncnc(N)c4OCC(F)(F)F)CC3)n2)ccn1` [Compound 14, 6-{4-[1-(2-Azetidin-1-yl-ethyl)-4-(2-isopropyl-pyridin-4-yl)-1H-imidazol-2-yl}-piperidin-1-yl]-5-(2,2,2-trifluoro-ethoxy)-Pyrimidin-4-ylamine]: the IC50 at P70S6K (T412E mutant) and on His-AKT (Full Length) was 3 to 15 nM throughout.
Consider `Cc1cc(-c2cn(CCN3CCC3)c(C3CCN(c4ncnc(N)c4C(C)C)CC3)n2)ccc1F` [Compound 4, 6-{4-[1-(2-Azetidin-1-yl-ethyl)-4-(4-fluoro-3-methyl-phenyl)-1H-imidazol-2-yl]-piperidin-1-yl}-5-isopropyl-pyrimidin-4-ylamine], for which the IC50 on P70S6K (T412E mutant) and at His-AKT (Full Length) was 3 to 15 nM in each case.
As to `CN(C)CCn1cc(-c2ccc(F)c(C(F)(F)F)c2)nc1C1CCN(c2ncnc(N)c2Cl)CC1` [Compound 23], the 50% inhibitory concentration (IC50) at P70S6K (T412E mutant) was under 3 nM; on His-AKT (Full Length) it was 3 to 15 nM.
On the same counts, the results for `CC(C)c1cc(-c2cn(CCN3CCC3)c(C3CCN(c4ncnc(N)c4C4CC4)CC3)n2)ccn1` [Compound 17, 6-{4-[1-(2-Azetidin-1-yl-ethyl)-4-(2-isopropyl-pyridin-4-yl)-1H-imidazol-2-yl]-piperidin-1-yl}-5-cyclopropyl-pyrimidin-4-ylamine] are 3 to 15 nM and 3 to 15 nM.
On the same counts, the results for `CN(C)CCn1cc(-c2ccnc(C(F)(F)F)c2)nc1C1CCN(c2ncnc(N)c2C(N)=O)CC1` [Compound 30] are over 15 nM and over 15 nM.
On the same counts, the results for `Cc1cc(-c2cn(CC3CN(C)C3)c(C3CCN(c4ncnc(N)c4Cl)CC3)n2)ccc1F` [Compound 6, 5-Chloro-6-{4-[4-(4-fluoro-3-methyl-phenyl)-1-(1-methyl-azetidin-3-ylmethyl)-1H-imidazol-2-yl]-piperidin-1-yl}-pyrimidin-4-ylamine] are 3 to 15 nM and 3 to 15 nM.
For `CN(C)CCn1cc(-c2ccnc(C(F)(F)F)c2)nc1C1CCN(c2ncnc(N)c2C#N)CC1` [Compound 29], the IC50 on P70S6K (T412E mutant) was under 3 nM; on His-AKT (Full Length), 3 to 15 nM.
The like results for `CC(C)c1cc(-c2cn(CCN3CCC3)c(C3CCN(c4ncnc(N)c4C4CCC4)CC3)n2)ccn1` [Compound 11, 6-{4-[1-(2-Azetidin-1-yl-ethyl)-4-(2-isopropyl-pyridin-4-yl)-1H-imidazol-2-yl]-piperidin-1-yl}-5-cyclobutyl-pyrimidin-4-ylamine] were, in that order, 3 to 15 nM and under 3 nM.
The like results for `CN(C)CCn1cc(-c2ccnc(C(F)(F)F)c2)nc1C1CCN(c2ncnc(N)c2Cl)CC1` [Compound 24] were, in that order, under 3 nM and 3 to 15 nM.
The like results for `CCOc1c(N)ncnc1N1CCC(c2nc(-c3ccc(F)c(Cl)c3)cn2CCN(C)C)CC1` [Compound 20] were, in that order, under 3 nM and 3 to 15 nM.
As for `Cc1cc(-c2cn(CCNCCCCl)c(C3CCN(c4ncnc(N)c4C(C)C)CC3)n2)ccc1F` [Compound 32, 6-{4-[1-[2-(3-Chloro-propylamino)-ethyl]-4-(4-fluoro-3-methyl-phenyl)-1H-imidazol-2-yl]-piperidin-1-yl}-5-isopropyl-pyrimidin-4-ylamine], the IC50 was under 3 nM on P70S6K (T412E mutant) and 3 to 15 nM on His-AKT (Full Length).

Values taken from patent publication US9434714B2, “Pyrimidine imidazole amines as modulators of kinase activity” (Merck Patent GmbH, priority 2014, dated 2016).
